Columns and labels:
Assay in all cases: biochemical
Type in all cases: biochemical
382 unique human kinases [1] = target: T1, 382 unique human kinases (Homo sapiens, UniProt O14920); conditions: IKKb/IKBKB, 10 uM; for remaining activity at 10 µM: read-out: % Enzyme Activity (relative to DMSO controls)
T1 construct: purchased Reaction Biology (HotSpot contract assay)
T1 sequence (O14920 1-756): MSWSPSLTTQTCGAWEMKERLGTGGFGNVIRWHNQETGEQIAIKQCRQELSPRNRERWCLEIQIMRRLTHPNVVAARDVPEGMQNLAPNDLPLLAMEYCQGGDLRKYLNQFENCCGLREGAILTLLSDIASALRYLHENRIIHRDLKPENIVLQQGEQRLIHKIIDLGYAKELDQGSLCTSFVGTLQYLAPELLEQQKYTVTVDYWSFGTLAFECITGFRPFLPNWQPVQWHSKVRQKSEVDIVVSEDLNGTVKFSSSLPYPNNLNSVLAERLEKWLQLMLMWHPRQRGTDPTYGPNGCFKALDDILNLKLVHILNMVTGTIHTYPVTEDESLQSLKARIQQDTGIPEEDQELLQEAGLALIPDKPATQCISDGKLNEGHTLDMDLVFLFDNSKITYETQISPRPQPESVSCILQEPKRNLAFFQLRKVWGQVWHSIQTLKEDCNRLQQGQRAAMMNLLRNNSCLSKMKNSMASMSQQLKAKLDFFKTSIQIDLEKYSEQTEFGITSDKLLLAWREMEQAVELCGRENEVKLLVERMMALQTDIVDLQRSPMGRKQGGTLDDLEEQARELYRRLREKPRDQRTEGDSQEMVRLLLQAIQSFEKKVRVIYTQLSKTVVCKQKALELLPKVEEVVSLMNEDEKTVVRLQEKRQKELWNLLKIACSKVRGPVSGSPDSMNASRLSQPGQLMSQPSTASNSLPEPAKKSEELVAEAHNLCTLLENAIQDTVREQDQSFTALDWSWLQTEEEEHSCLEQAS

382 unique human kinases [2] = target: T2, 382 unique human kinases (Homo sapiens, UniProt P23443); conditions: kinase p70S6K/RPS6KB1, compound 10 uM; for remaining activity at 10 µM: read-out: % Enzyme Activity (relative to DMSO controls)
T2 construct: purchased Reaction Biology (HotSpot contract assay)

382 unique human kinases [3] = target: T3, 382 unique human kinases (Homo sapiens, UniProt P51817); conditions: PRKX, compound at 10 uM, duplicate values; for remaining activity at 10 µM: read-out: % Enzyme Activity (relative to DMSO controls)
T3 construct: purchased Reaction Biology (HotSpot contract assay)
T3 sequence (P51817 1-358): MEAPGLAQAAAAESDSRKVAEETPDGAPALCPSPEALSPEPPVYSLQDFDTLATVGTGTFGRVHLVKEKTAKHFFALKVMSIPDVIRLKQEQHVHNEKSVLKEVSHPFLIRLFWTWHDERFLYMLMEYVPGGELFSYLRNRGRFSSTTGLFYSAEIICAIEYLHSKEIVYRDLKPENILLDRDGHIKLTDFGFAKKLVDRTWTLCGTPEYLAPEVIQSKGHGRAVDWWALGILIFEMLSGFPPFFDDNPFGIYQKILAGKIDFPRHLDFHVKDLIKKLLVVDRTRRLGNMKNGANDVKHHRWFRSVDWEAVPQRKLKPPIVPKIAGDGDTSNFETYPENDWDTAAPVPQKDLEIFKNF

382 unique human kinases [4] = target: T4, 382 unique human kinases (Homo sapiens, UniProt Q6IQ55); conditions: TTBK2, compound at 10 uM, duplicate values; for remaining activity at 10 µM: read-out: % Enzyme Activity (relative to DMSO controls)
T4 construct: purchased Reaction Biology (HotSpot contract assay)

382 unique human kinases [5] = target: T5, 382 unique human kinases (Homo sapiens, UniProt Q9H2G2); conditions: SLK/STK2, 10 uM; for remaining activity at 10 µM: read-out: % Enzyme Activity (relative to DMSO controls)
T5 construct: purchased Reaction Biology (HotSpot contract assay)

382 unique human kinases [6] = target: T6, 382 unique human kinases (Homo sapiens, UniProt Q9H3Y6); conditions: SRMS, compound at 10 uM, duplicate values; for remaining activity at 10 µM: read-out: % Enzyme Activity (relative to DMSO controls)
T6 construct: purchased Reaction Biology (HotSpot contract assay)

382 unique human kinases [7] = target: T7, 382 unique human kinases (Homo sapiens, UniProt P31749, E17K); conditions: AKT1 (E17K), 10 uM; for remaining activity at 10 µM: read-out: % Enzyme Activity (relative to DMSO controls)
T7 construct: purchased Reaction Biology (HotSpot contract assay)

382 unique human kinases [8] = target: T8, 382 unique human kinases (Homo sapiens, UniProt Q9UL54); conditions: TAOK2/TAO1, [ATP] 30 µM, compound 10 uM; for remaining activity at 10 µM: read-out: % Enzyme Activity (relative to DMSO controls)
T8 construct: purchased Reaction Biology (HotSpot contract assay)
T8 sequence (Q9UL54 1-1235): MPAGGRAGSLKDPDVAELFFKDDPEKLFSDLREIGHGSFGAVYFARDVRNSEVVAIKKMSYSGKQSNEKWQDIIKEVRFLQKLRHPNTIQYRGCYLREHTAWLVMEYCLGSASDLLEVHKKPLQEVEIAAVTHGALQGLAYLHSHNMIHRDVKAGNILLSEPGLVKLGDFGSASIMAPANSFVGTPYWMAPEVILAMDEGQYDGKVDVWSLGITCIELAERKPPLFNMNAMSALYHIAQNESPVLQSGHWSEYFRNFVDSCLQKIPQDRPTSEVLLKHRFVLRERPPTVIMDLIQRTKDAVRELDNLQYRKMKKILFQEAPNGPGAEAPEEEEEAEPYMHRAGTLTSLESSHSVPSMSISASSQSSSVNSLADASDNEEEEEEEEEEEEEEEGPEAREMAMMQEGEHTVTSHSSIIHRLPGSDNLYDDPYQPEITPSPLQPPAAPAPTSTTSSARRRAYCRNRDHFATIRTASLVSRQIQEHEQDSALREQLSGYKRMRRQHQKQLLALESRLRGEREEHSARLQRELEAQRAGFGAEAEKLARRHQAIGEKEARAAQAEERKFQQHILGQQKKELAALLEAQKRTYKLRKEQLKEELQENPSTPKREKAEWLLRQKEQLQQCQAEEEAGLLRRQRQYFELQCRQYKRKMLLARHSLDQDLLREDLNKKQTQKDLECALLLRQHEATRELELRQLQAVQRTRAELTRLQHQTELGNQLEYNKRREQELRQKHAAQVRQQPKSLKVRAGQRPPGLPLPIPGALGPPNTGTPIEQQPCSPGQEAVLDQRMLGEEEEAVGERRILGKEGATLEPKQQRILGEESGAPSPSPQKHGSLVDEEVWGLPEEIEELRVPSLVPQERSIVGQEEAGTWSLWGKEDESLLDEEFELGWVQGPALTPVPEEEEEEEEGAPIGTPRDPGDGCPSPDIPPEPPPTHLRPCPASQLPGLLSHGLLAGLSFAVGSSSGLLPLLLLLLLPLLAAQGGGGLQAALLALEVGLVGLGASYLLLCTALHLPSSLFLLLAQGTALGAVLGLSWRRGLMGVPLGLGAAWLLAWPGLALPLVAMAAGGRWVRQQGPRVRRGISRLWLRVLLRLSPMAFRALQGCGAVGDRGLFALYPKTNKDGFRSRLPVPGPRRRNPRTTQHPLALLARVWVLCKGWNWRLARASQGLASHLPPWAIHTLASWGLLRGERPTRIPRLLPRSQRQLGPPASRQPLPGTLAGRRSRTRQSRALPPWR

382 unique human kinases [9] = target: T9, 382 unique human kinases (Homo sapiens, UniProt Q9UM73, L1152R); conditions: ALK (L1152R), [ATP] 30 µM, compound 10 uM; for remaining activity at 10 µM: read-out: % Enzyme Activity (relative to DMSO controls)
T9 construct: purchased Reaction Biology (HotSpot contract assay)
T9 sequence (Q9UM73 19-1620 L1152R): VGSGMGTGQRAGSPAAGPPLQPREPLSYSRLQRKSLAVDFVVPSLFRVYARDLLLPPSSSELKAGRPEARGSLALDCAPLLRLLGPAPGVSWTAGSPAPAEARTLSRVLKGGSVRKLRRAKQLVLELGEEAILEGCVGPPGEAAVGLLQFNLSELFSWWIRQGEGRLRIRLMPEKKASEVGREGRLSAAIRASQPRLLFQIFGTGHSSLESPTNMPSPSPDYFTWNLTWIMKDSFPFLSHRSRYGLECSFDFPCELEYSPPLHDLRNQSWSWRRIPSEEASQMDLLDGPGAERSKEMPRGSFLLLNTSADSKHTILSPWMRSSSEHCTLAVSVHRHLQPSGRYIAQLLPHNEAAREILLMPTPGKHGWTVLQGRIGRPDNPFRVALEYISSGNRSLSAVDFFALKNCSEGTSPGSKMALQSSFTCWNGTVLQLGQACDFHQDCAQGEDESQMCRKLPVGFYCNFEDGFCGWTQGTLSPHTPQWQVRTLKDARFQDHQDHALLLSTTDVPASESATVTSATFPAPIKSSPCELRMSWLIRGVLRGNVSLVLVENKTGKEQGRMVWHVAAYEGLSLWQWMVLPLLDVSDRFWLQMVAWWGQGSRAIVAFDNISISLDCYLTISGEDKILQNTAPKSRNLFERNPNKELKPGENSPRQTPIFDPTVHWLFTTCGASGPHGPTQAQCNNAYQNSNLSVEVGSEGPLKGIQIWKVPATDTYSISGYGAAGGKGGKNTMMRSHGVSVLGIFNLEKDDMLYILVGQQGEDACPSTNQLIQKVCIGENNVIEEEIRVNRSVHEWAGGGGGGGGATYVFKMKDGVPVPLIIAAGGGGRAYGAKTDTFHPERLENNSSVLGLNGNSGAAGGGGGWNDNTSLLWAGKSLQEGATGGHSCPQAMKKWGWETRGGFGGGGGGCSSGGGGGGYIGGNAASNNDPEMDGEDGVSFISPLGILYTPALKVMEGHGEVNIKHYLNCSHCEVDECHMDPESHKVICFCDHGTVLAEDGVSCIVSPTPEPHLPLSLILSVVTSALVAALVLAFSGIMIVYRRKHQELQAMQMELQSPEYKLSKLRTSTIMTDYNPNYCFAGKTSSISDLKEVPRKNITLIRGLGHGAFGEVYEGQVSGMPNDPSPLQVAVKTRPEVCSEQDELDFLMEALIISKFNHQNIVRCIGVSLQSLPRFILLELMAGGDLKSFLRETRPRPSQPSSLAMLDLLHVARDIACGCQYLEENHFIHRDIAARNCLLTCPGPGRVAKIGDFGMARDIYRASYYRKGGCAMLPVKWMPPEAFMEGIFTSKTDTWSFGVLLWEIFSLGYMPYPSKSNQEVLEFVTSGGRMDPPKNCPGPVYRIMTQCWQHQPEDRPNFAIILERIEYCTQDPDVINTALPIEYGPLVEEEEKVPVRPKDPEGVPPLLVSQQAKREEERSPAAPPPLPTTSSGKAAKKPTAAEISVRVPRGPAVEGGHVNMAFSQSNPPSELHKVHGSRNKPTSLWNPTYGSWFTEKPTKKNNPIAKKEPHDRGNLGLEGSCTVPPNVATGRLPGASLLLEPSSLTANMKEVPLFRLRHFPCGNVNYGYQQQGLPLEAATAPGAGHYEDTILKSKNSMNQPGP

T4 sequence (Q6IQ55 whole entry): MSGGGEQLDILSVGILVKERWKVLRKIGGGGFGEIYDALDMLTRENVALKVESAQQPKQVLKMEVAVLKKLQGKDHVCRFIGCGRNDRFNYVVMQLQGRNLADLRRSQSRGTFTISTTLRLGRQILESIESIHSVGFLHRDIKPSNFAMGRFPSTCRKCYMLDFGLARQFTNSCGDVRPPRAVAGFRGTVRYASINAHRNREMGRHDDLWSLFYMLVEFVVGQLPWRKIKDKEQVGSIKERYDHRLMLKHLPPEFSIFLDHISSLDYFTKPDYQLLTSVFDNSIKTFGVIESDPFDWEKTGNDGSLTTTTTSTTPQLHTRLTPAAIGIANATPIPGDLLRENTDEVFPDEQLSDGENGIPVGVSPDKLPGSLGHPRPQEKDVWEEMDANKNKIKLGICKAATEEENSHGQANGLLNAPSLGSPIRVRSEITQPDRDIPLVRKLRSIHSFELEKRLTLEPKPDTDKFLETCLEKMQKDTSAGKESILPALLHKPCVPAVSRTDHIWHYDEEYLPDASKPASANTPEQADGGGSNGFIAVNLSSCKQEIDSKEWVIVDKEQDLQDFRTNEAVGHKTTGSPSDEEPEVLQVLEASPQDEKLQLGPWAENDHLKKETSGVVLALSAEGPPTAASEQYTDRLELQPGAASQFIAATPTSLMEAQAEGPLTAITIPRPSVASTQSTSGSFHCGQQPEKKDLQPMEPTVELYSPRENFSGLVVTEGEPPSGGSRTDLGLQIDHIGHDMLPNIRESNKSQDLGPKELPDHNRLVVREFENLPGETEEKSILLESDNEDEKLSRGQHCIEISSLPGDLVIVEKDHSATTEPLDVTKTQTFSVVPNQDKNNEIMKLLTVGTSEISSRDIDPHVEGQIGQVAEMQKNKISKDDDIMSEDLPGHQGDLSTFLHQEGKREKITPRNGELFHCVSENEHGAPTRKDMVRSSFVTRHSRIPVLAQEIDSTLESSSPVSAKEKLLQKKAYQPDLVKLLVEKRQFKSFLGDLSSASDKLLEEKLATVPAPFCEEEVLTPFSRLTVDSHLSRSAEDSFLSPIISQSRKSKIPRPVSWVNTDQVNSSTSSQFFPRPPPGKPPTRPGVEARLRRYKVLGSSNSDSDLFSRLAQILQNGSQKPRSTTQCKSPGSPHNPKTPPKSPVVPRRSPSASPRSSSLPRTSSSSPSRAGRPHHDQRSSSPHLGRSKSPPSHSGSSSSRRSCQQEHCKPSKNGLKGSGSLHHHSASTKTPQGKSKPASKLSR
T7 sequence (P31749 whole entry E17K): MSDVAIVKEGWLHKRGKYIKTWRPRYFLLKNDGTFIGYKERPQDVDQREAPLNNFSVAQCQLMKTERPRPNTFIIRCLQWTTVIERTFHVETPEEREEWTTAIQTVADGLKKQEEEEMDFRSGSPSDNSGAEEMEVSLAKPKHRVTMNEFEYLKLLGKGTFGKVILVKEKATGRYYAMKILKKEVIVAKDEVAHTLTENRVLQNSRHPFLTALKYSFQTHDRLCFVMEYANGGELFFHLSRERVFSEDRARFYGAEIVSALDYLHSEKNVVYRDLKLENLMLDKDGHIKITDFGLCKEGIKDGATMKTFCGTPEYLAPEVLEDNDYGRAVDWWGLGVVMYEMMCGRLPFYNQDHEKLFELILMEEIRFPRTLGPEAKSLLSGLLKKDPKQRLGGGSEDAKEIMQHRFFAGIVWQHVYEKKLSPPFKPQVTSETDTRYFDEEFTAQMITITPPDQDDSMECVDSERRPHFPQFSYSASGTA
T2 sequence (P23443 whole entry): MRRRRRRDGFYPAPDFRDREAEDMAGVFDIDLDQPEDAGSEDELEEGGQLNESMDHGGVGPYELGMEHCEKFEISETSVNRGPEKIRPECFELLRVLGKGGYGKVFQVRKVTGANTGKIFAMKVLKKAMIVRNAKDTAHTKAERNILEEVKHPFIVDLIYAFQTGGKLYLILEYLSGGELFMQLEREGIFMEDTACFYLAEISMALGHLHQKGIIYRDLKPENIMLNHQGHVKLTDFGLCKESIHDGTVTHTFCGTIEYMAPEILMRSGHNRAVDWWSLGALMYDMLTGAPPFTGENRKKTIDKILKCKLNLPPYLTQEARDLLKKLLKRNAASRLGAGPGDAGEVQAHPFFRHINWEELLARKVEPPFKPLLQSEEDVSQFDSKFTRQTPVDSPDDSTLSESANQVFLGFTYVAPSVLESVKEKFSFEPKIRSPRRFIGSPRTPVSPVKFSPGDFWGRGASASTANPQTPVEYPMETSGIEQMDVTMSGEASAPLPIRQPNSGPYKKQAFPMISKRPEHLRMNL
T5 sequence (Q9H2G2 whole entry): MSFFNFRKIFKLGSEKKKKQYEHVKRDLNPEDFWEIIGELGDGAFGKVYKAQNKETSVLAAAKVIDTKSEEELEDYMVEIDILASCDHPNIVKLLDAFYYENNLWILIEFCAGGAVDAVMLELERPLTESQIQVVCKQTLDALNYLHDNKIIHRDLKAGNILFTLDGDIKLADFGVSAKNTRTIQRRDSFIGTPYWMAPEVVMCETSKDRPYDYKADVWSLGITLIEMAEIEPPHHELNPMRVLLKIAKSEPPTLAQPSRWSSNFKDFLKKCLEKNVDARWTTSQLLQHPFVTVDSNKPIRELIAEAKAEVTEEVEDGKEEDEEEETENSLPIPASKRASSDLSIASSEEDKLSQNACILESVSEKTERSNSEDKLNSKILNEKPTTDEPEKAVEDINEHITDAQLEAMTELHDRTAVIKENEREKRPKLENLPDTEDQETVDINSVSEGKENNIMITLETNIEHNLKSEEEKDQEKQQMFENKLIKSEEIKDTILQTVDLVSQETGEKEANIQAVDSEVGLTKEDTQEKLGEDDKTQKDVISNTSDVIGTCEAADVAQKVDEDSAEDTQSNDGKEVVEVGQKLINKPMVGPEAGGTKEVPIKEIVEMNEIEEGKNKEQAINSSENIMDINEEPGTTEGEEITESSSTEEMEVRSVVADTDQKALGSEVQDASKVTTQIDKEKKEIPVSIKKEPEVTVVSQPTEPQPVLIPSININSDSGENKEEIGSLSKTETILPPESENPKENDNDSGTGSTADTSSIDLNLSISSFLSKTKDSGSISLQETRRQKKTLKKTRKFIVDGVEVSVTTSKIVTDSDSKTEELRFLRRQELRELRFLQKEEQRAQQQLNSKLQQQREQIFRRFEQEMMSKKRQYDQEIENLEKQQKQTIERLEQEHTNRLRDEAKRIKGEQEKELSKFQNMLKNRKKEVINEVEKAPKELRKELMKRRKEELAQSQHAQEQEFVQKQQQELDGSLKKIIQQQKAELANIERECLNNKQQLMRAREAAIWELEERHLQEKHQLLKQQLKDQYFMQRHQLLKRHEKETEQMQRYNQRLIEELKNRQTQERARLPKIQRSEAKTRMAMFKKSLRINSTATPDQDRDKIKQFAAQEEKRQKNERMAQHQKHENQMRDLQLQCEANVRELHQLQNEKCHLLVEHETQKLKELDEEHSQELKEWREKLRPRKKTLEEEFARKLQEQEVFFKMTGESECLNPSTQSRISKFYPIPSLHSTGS

| Compound | remaining activity at 10 µM (382 unique human kinases [1]) [%] | remaining activity at 10 µM (382 unique human kinases [2]) [%] | remaining activity at 10 µM (382 unique human kinases [3]) [%] | remaining activity at 10 µM (382 unique human kinases [4]) [%] | remaining activity at 10 µM (382 unique human kinases [5]) [%] | remaining activity at 10 µM (382 unique human kinases [6]) [%] | remaining activity at 10 µM (382 unique human kinases [7]) [%] | remaining activity at 10 µM (382 unique human kinases [8]) [%] | remaining activity at 10 µM (382 unique human kinases [9]) [%] | % Enzyme Activity (relative to DMSO controls) (382 unique human kinases [7]) [%] | % Enzyme Activity (relative to DMSO controls) (382 unique human kinases [8]) [%] | % Enzyme Activity (relative to DMSO controls) (382 unique human kinases [9]) [%] | % Enzyme Activity (relative to DMSO controls) (382 unique human kinases [1]) [%] | % Enzyme Activity (relative to DMSO controls) (382 unique human kinases [2]) [%] | % Enzyme Activity (relative to DMSO controls) (382 unique human kinases [3]) [%] | % Enzyme Activity (relative to DMSO controls) (382 unique human kinases [4]) [%] | % Enzyme Activity (relative to DMSO controls) (382 unique human kinases [5]) [%] | % Enzyme Activity (relative to DMSO controls) (382 unique human kinases [6]) [%] |
| --- | --- | --- | --- | --- | --- | --- | --- | --- | --- | --- | --- | --- | --- | --- | --- | --- | --- | --- |
| CC(C)c1cc(-c2n[nH]c(=O)n2-c2ccc3c(ccn3C)c2)c(O)cc1O [Ganetespib (STA9090)] | 66.7 | 91.3 | 108 | 124 | 79.5 | 109 |  |  |  |  |  |  |  |  |  |  |  |  |
| CC(C)c1cc(-c2n[nH]c(=O)n2-c2ccc3c(ccn3C)c2)c(O)cc1O [Ganetespib] |  |  |  |  |  |  | 94.2 | 58.9 | 14.2 |  |  |  |  |  |  |  |  |  |
| CCNC(=O)c1noc(-c2cc(C(C)C)c(O)cc2O)c1-c1ccc(CN2CCOCC2)cc1 [Luminespib] |  |  |  |  |  |  | 101 | 96 | 90.7 | 93.12 | 95.89 | 90.08 |  |  |  |  |  |  |
| CCNC(=O)c1noc(-c2cc(C(C)C)c(O)cc2O)c1-c1ccc(CN2CCOCC2)cc1 [Luminespib (AUY-922)] | 104 | 107 | 112 | 122 | 90.2 | 111 |  |  |  |  |  |  | 102.97 | 107.14 | 112.11 | 121.05 | 89.63 | 110.03 |

— article PMC8550792, “Evolution of kinase polypharmacology across HSP90 drug discovery” (Cell Chemical Biology, 2021)
